Laboratory results reported in patent US9090657B2, “Compound and methods for its production” (NEUROVIVE PHARMACEUTICAL AB, priority 2011, dated 2015).
Read-outs that look alike come from different tables or passages of the source.

Tests used:
[1] = test system: HCV genotype 1b I389luc-ubi-neo/NS3-3'/5.1 replicon in Huh5.2 cells; assay: HCV genotype 1b replicon assay, antiviral effect (luciferase); type: cell-based, Hepatitis C virus; conditions: for EC50: Hepatitis C virus, Huh-5-2, 72 h; for Selectivity index (CC50/EC50): Huh5.2 replicon assay
Protocol: (§1) Dilution series are prepared; each dilution series is performed in at least duplicate.
For the evaluation of antiviral effects, assay medium is aspirated and the cell monolayers are washed with PBS. The wash buffer is aspirated, 25 μL of Glo Lysis Buffer (Cat. No. E2661, Promega) is added after which lysis is allowed to proceed for 5 min at room temperature. Subsequently, 50 μL of Luciferase Assay System (Cat. No. E1501, Promega) is added and the luciferase luminescence signal is quantified immediately (1000 ms integration time/well, Safire^2, Tecan). Relative luminescence units are converted to percentage of untreated controls.
(§2) The selectivity index (SI), indicative of the therapeutic window of the compound, is calculated as CC50/EC50.
(§3) Compounds were analysed in the genotype 1b replicon assay using Huh5.2 cells as described in the General Methods.

[2] = Anti-metabolic effect (MTS) in replicon cells; conditions: human
Protocol: as §1, §2, §3

[3] = Mouse in vivo oral and iv PK; conditions: male, CD1 mice, whole blood; for clearance: iv at 1 mg/kg; for AUC(0-t): read-out: po AUClast
Protocol: For sanglifehrin analogues, whole blood is analysed. Compounds are formulated in 5% ethanol/5% cremophor EL/90% saline for both p.o. and i.v. administration. Groups of 3 male CD1 mice are dosed with either 1 mg/kg i.v. or 5 or 10 mg/kg p.o. Blood samples (40 μL) are taken via saphenous vein, pre-dose and at 0.25, 0.5, 2, 8, and 24 hours, and diluted with an equal amount of dH20 and put on dry ice immediately. Samples are stored at −70° C. until analysis. The concentration of the compound of the invention or parent compound in the sample is determined via LCMS as follows: 20 μL of blood:H2O (1:1, v/v)/PK sample is added with 20 μL Internal standard (hydroxyl macrocycle, 6) at 100 ng/mL, 20 μL working solution/MeOH and 150 μL of ACN, vortexed for 1 minute at 1500 rpm, and centrifuged at 12000 rpm for 5 min. The supernatant is then injected into LC-MS/MS. The time-course of blood concentrations is plotted and used to derive area under the whole blood concentration-time curve (AUC—which is directly proportional to the total amount of unchanged drug that reaches the systemic circulation). These values are used to generate PK parameters where possible.
To assess the pharmacokinetics of the compounds in an in vivo setting, compounds were dosed po at 10 or 5 mg/kg and iv at 1 mg/kg to groups of CD1 mice. Pharmacokinetic analysis was carried out as described in the general methods. The PK parameters are shown below.

[4] = test system: Huh5.2 cells; assay: Anti-metabolic effect (MTS) in replicon cells; conditions: Huh5.2 cells, MTS, 72 hours
Protocol: as §1, §2, §3

[5] = test system: HIV; assay: microbe, parasite or virus in culture; type: cell-based; conditions: Human immunodeficiency virus 1, HeLa, read-out: HeLa cells EC50
Protocol: Briefly, human PBMCs were purified from fresh blood by banding on Ficoll-Hypaque (30 min, 800 g, 25° C.). Primary human CD4+ T cells were purified from PBMCs by positive selection with anti-CD4 Dynabeads and subsequent release using Detachabead. […] Three days after stimulation, cells were split 1:2 in medium containing IL-2 (200 units/ml final concentration). Cultures were then split 1:2 every 2 days in IL-2 medium and infected with HIV at 7 days after stimulation. […] To obtain monocyte-derived macrophages, cells were allowed to adhere to plastic and cultured for 6 days to allow differentiation.
CD4+ HeLa cells, Jurkat cells, activated CD4+ peripheral blood T-lymphocytes and macrophages (500,000 cells/100 μL) were incubated with pNL4.3-GFP (X4 virus) or pNL4.3-BaL-GFP (R5 virus) (100 ng of p24) in the presence of increasing concentrations of test article, Forty-eight hours later, infection was scored by analyzing the percentage of GFP-positive cells by FACS and EC50 calculated.
Compounds were analysed in an HIV antiviral assay using HeLa cells as described in the General Methods.

[6] = molecular target: CypA (Homo sapiens (Human), UniProt P62937); assay: biochemical
Protocol: An alternative methodology for analysing interaction with cyclophilins is described as follows: The PPlase activity of recombinant CypA or D, produced by thrombin cleavage of GST-CypA or D, was determined by following the rate of hydrolysis of N-succinyl-Ala-Ala-Pro-Phe-p-nitroanilide by chymotrypsin. Chymotrypsin only hydrolyzes the trans form of the peptide, and hydrolysis of the cis form, the concentration of which is maximized by using a stock dissolved in trifluoroethanol containing 470 mM LiCl, is limited by the rate of cis-trans isomerization. CypA or D was equilibrated for 1 h at 5° C. with selected test article using a drug concentration range from 0.1 to 20 nM. The reaction was started by addition of the peptide, and the change in absorbance was monitored spectrophotometrically at 10 data points per second. The blank rates of hydrolysis (in the absence of CypA or D) were subtracted from the rates in the presence of CypA or D. The initial rates of the enzymatic reaction were analyzed by first-order regression analysis of the time course of the change in absorbance.
To assess the direct inhibition of CypA Peptidyl Prolyl cis-trans Isomerase (PPlase) activity, a method was used as described in the general methods.

[7] = molecular target: OATP1B1 (Homo sapiens (Human), UniProt Q9Y6L6); assay: Uptake transporter inhibition, OATP1B1; type: cell-based; conditions: CHO cells, probe substrate E3S
Protocol: (§4) To assess the inhibition of the […] and OAT1B3 uptake transporters, an in vitro uptake transporter assay from Solvo Biotechnology Inc. was used. […] Parental cell line CHO-K was used as negative control. […] Before experiments the medium was aspirated by vacuum suction, cells were washed with 2×100 μl of Krebs-Henseleit buffer pH 7.3 (prepared from Sigma chemicals, Sigma-Aldrich, St Louis, Mo.). Uptake experiments were carried out at 37° C. in 50 μl of Krebs-Henseleit buffer (pH 7.3) containing the probe substrate and the TA or solvent, respectively. […] The probe substrate for the OATP1B1 assay was E3S (0.1 μM) and for the OATP1B3 assay was Fluo-3 (10 μM). The translocated amount of probe substrate was determined for each well in cpm. Relative activities were calculated from the equation: Activity%=(A−B)/(C−D)×100

[8] = molecular target: OATP1B3 (Homo sapiens (Human), UniProt Q9NPD5); assay: Uptake transporter inhibition, OATP1B3; type: cell-based; conditions: CHO cells, probe substrate Fluo-3
Protocol: as §4

[9] = molecular target: MRP2 (Homo sapiens (Human), UniProt Q92887); assay: Vesicular efflux transporter inhibition, MRP2
Protocol: (§5) To assess the inhibition of the MRP2, MRP3 and BSEP efflux transporters, an in vitro vesicular transporter assay from Solvo Biotechnology Inc. was used. […] In the case of MRP2 and MRP3 transporters reactions were carried out in the presence of 2 mM glutathione. Reaction mixtures were preincubated for ten minutes at 37° C. Reactions were started by the addition of 25 μl of 12 mM MgATP (4 mM final concentration in assay) or assay buffer for background controls. Reactions were stopped by adding 200 μl of ice-cold washing buffer and immediately followed by filtration on glass fiber filters in a 96-well format (filter plate). Scintillation buffer was added to the washed and dried filter plate and scintillation was counted subsequently. Probe substrates were taurocholate (2 μM) for BSEP vesicles and E217βG (1 μM) for MRP2 and MRP3 vesicles. For all wells the translocated amount of the probe substrate was determined in cpm units. Relative activities were calculated with the following equation:
(§6) Activity %=(A−B)/(C−D)×100 Where A=translocated amount of substrate in the presence of TA and ATP, B=translocated amount of substrate in the presence of TA, C=translocated amount of substrate in the presence of solvent and ATP and D=translocated amount of substrate in the presence of solvent. […]

[10] = molecular target: MRP3 (Homo sapiens (Human), UniProt O15438); assay: Vesicular efflux transporter inhibition, MRP3
Protocol: as §5, §6

[11] = molecular target: P-glycoprotein (Pgp/MDR1) (Homo sapiens (Human), UniProt P08183); assay: Inhibition of Pgp transporter using MDR1-MDCK cells; type: cell-based; conditions: loperamide substrate
Protocol: To assess the inhibition of the P-glycoprotein (Pgp/MDR1) transporter, an in vitro ATPase assay from Cyprotex was used. MDR1—MDCK cells obtained from the NIH (Rockville, Md., USA) were used. Following culture, the monolayers were prepared by rinsing both basolateral and apical surfaces twice with buffer at pH 7.4 and 37° C. […] For the apical to basolateral study (A-B), buffer at pH 7.4 was removed from the apical compartment and replaced with loperamide dosing solutions before being placed in the ‘companion’ plates. The solutions were prepared by diluting loperamide in DMSO with buffer to give a final loperamide concentration of 5 μM (final DMSO concentration adjusted to 1%). The fluorescent integrity marker Lucifer yellow was also included in the dosing solution. The experiment was performed in the presence and absence of the test compound (applied to both the apical and basolateral compartments). For basolateral to apical (B-A) study, the P-glycoprotein substrate, loperamide (final concentration=5 μM) was placed in the basolateral compartment. The experiment was performed in the presence and absence of the test compound (applied to the apical and basolateral compartments). […] The test compound was assessed at 0.1, 0.3, 1, 3, 10, 30 and 50 μM. […] After analysis, an IC50 was calculated (i.e., inhibitor concentration (test drug) achieving half maximal inhibition effect).

[12] = molecular target: Bile Salt Export Pump (BSEP) (Homo sapiens (Human), UniProt O95342); assay: Vesicular efflux transporter inhibition, BSEP; type: biochemical; conditions: membrane vesicles, probe taurocholate
Protocol: Relative activities were calculated with the following equation: […]

[13] = test system: HBV; conditions: Ptak et al. 2008; read-out: IC50 against HBV; cited from earlier work

`CC[C@H]1C[C@H](C)[C@@]2(NC1=O)O[C@@H](C[C@H](O)[C@@H](C)CC/C=C/C=C(\C)[C@@H]1C/C=C/C=C/[C@H](O)[C@H](C)[C@@H](O)[C@@H](CCC(C)=O)C(=O)N[C@@H](C(C)C)C(=O)N[C@@H](Cc3cccc(O)c3)C(=O)N3CCC[C@H](N3)C(=O)O1)[C@H](C)[C@H](O)[C@@H]2C` [Sanglifehrin A, 5, Sanglifehrin A] showed an EC50 [1] of 318 nM, a CC50 at 72 h [2] of 9100 nM and a clearance [3] of 0.9 mL/min/kg. It also gave an AUC(0-t) ([3]; po 10 mg/kg) of 2330 ng·h/mL.
In the case of `C/C=C/C[C@@H](C)[C@@H](O)[C@H]1C(=O)N[C@@H](CC)C(=O)N(C)[C@H](C)C(=O)N(CC)[C@@H](C(C)C)C(=O)N[C@@H](C(C)C)C(=O)N(C)[C@@H](CC(C)C)C(=O)N[C@@H](C)C(=O)N[C@H](C)C(=O)N(C)[C@@H](CC(C)C)C(=O)N(C)[C@@H](CC(C)C)C(=O)N(C)[C@@H](C(C)C)C(=O)N1C` [DEBIO-025, 2, DEBIO-025], the EC50 [1] is reported as 96 nM, the “Selectivity index (CC50/EC50)” value [1] is reported as 111 and the CC50 [4] is reported as 11200 nM. The EC50 [5] was 1500 nM, the IC50 ([6]; read-out: CypA PPIase IC50, recombinant CypA) was 0.8 nM and the IC50 [7] was 450 nM. The IC50 [8] was 190 nM, the IC50 [9] was 16000 nM and the IC50 [10] was > 50000 nM. The IC50 [11] was 720 nM, the IC50 [12] was 180 nM and the IC50 [13] was 4100 nM.
For `CC(=O)CC[C@H]1C(=O)N[C@@H](C(C)C)C(=O)N[C@@H](Cc2cccc(O)c2)C(=O)N2CCC[C@H](N2)C(=O)O[C@H](/C(C)=C/CO)C/C=C/C=C/[C@H](O)[C@H](C)[C@H]1O` [Hydroxymacrocycle, 6], the EC50 [1] was 8400 nM, the “Selectivity index (CC50/EC50)” value [1] was 9.9 and the CC50 at 72 h [2] was 83600 nM.
For `CC(=O)CC[C@H]1C(=O)N[C@@H](C(C)C)C(=O)N[C@@H](Cc2cc(O)cc(F)c2)C(=O)N2CCCC(N2)C(=O)O[C@H](/C(C)=C/C=C/C(=O)N2CCCCO2)C/C=C/C=C/[C@H](O)[C@H](C)[C@H]1O` (stereo partly drawn) [Compound 24], the EC50 [1] was 33 nM, the “Selectivity index (CC50/EC50)” value [1] was >3030 and the CC50 at 72 h [2] was > 100000 nM. For the same compound, the EC50 [5] was 130 nM, the clearance [3] was 0.283 mL/min/kg and the AUC(0-t) ([3]; po 5 mg/kg) was 8220 ng·h/mL. For the same compound, the IC50 [6] was 0.31 nM, the IC50 [7] was 4300 nM and the IC50 [8] was 1800 nM. The IC50 [9] was > 50000 nM, the IC50 [10] was > 50000 nM and the IC50 [11] was > 50000 nM. It also gave an IC50 [12] of 12300 nM.
`Nc1nc(=O)n([C@@H]2CS[C@H](CO)O2)cc1F` [Emtricitabine] gave an EC50 [5] of 400 nM.
